The source of these data is PubChem BioAssay (NCI).

What all share (test): growth of human tumour cells (NCI), 48 h
Experiment [1] has as its system A498 renal.
Experiment [2] has as its system HOP-62 NSCLC.
Experiment [3] deals with CCRF-CEM leukemia.
The test system of experiment [4] is MDA-MB-435.
Experiment [5] deals with MDA-MB-231 breast.
Experiment [6] concerns OVCAR-5 ovarian.
Experiment [7] concerns NCI-H460 lung.
Experiment [8] has as its system SK-MEL-2 melanoma.
Experiment [9] concerns MALME-3M melanoma.
For experiment [10], the system named is K-562 leukemia.
Experiment [11] has as its system UO-31 renal.

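Grown in 96-well plates, cells were treated for 48 hours with each compound at five concentrations. Insufficient inhibition: endpoint recorded as highest concentration tested. At the TGI there is no net growth.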 Bounds are passed on as bounds.

Regarding `CSc1ncnc2c1ncn2C1CC(Oc2ccc(C)cc2)C(COc2ccc(C)cc2)O1` (stereo not drawn), the TGI in experiment [1], in [2], in [3], in experiment [4], in [5] and in experiment [6] was more than 100 µM each time. Moreover, the TGI in experiment [7], in [8] and in [9] was more than 100 µM each time.
Regarding `O=c1cc(-c2ccc(F)cc2)[nH]c2ncc(Cl)cc12`, the TGI in [10] is 32.6 µM; in [1] it was 53.6 µM; in experiment [2], more than 93.2 µM; in [3], 77.1 µM; in [4], 9.85 µM; in experiment [5] it was more than 100 µM. Besides, the TGI in [6], in experiment [7], in experiment [11], in experiment [8] and in experiment [9] was more than 100 µM in each case.
Turning to `COc1cc(/C=C2\C(=O)N(c3ccccc3)C(c3ccccc3)S2(=O)=O)cc(OC)c1OC` (stereo not drawn), the TGI was more than 100 µM in experiment [10]; more than 100 µM in experiment [1]; more than 100 µM in experiment [2]; 56.8 µM in experiment [3]; more than 100 µM in [4]; more than 100 µM in [5]. In addition, the TGI in experiment [6], in [7], in experiment [11], in [8] and in experiment [9] was more than 100 µM in each case.
Consider `Cc1c(S(=O)(=O)/N=C(\NO)Nc2ccc(Cl)c(Cl)c2)sc2ccc(Cl)cc12`, for which the TGI was 71.4 µM in experiment [10]; 38.2 µM in [1]; 42.3 µM in experiment [2]; more than 100 µM in experiment [3]; 37.3 µM in experiment [4]; 55.3 µM in [5]. The TGI in experiment [6] was found to be 38.2 µM; in [11], 37.8 µM; in experiment [8], 38.6 µM; in experiment [9], 42.6 µM.
`CCOC(=O)c1cc(C(O)P2(=O)N(CC(C)(C)C)[C@@H]3CCCC[C@H]3N2CC(C)(C)C)cn1C(=O)OC(C)(C)C` (stereo partly drawn): the TGI came out at 47 µM in [10]; 65.3 µM in experiment [1]; 28.1 µM in experiment [2]; 27 µM in experiment [4]; 31.4 µM in experiment [5]; 41.6 µM in experiment [6]. The TGI in [11] worked out at 28.7 µM; in experiment [8], 32.8 µM; in [9] it was 33.6 µM.
As for `CC(C)(C)OC(=O)NC(Cc1ccc(OCc2ccccc2)cn1)C(=O)N1CCCCC1` (stereo not drawn), the TGI is more than 100 µM in experiment [10]; more than 100 µM in [1]; more than 100 µM in [2]; more than 100 µM in [3]; 49 µM in [4]; more than 100 µM in experiment [5]. Further, the TGI is more than 100 µM in experiment [6]; more than 100 µM in experiment [7]; 71.4 µM in [11]; 58.2 µM in [8]; more than 100 µM in [9].
On to `O=C(c1ccc(N=Cc2ccccc2O)cc1)c1ccc(N=Cc2ccccc2O)cc1`, for which the TGI in experiment [10], in [1], in [2], in experiment [4], in experiment [5] and in [6] was more than 100 µM in each case. Moreover, the TGI in [7], in experiment [11], in experiment [8] and in experiment [9] was more than 100 µM throughout.
`C=CC(CCc1ccc(C(=O)OCC)cc1)c1c(N)nc(N)[nH]c1=O` (stereo not drawn): the TGI in [10], in [1], in experiment [2], in [3], in [4] and in experiment [5] was more than 100 µM each time. Besides, the TGI in experiment [7], in experiment [11], in [8] and in experiment [9] was more than 100 µM each time.
For `Cc1ccc([N+](=O)[O-])cc1S(=O)(=O)Nc1ccc(C2=NNC(c3ccccc3)C2)cc1` (stereo not drawn), the TGI in experiment [10] was 85 µM; in experiment [1], 68.9 µM; in experiment [2], 27.2 µM; in [4], 44.6 µM; in [5] it was 77.5 µM; in [6], more than 100 µM. The TGI amounted to 37.6 µM in [7], 71.5 µM in [11], 45.4 µM in experiment [8] and 46 µM in experiment [9].
For `O=Cc1ccc2c(c1)CC1(Cc3ccccc3C1)C2`, the TGI was determined as 44.9 µM in experiment [10]; 83.7 µM in [1]; 34.2 µM in [2]; 25.5 µM in experiment [3]; 37.6 µM in experiment [4]; 30.4 µM in [5]. For the same molecule, the TGI was more than 100 µM in experiment [6], 58.7 µM in [11], 27.1 µM in [8] and 36.3 µM in [9].
For the molecule `O=C1C(CN2CCCCC2)CCC1CN1CCCCC1` (stereo not drawn), the TGI in experiment [1] was 29.2 µM; in [2], more than 100 µM; in experiment [3], 3.97 µM; in experiment [4] it was 51.8 µM; in experiment [5] it was 42.3 µM; in experiment [6], 47.8 µM. The TGI is more than 100 µM in [7], 22.1 µM in [11], 52.6 µM in experiment [8] and 49 µM in experiment [9].
`CCCCN1C(=O)N(c2ccc(OCC)cc2)C2N(CCCC)C1C(C)(C)C2(C)C` (stereo not drawn): the TGI in experiment [1] was more than 100 µM; in experiment [2], more than 100 µM; in experiment [3] it was 63.7 µM; in experiment [4], 97.3 µM; in [5], more than 100 µM; in experiment [7] it was more than 100 µM. Besides, the results for the TGI in experiment [11], in [8] and in experiment [9] were 88.9 µM, more than 100 µM and 73.1 µM, respectively.
As to `Nc1nc(N)c2ncn(-c3ccc(Cl)cc3)c2n1`, the TGI was 83.5 µM in experiment [1]; more than 100 µM in experiment [2]; 66.1 µM in experiment [3]; more than 100 µM in [4]; more than 100 µM in experiment [5]; more than 100 µM in experiment [6]. Also, the TGI in experiment [11], in experiment [8] and in experiment [9] was more than 100 µM each time.
With `O=C1C=CC[C@H]2O[C@@H](COC(=O)Cc3ccccc3)C[C@H]2O1`, the TGI in [10], in experiment [1], in experiment [2], in [3], in experiment [4] and in [5] was more than 100 µM throughout. The TGI in experiment [6], in [7], in experiment [11] and in [8] was more than 100 µM throughout.
For the molecule `COCN(CCC1=CCCCC1)C(=O)OC`, the TGI in experiment [10], in experiment [1], in experiment [2], in [4], in experiment [5] and in [6] was more than 100 µM in each case. Further, the TGI in experiment [7], in [11], in [8] and in experiment [9] was more than 100 µM in each case.
As for `CCOc1cn(C2CC(O)C(CO)O2)c(=O)[nH]c1=O` (stereo not drawn), the TGI in experiment [1], in experiment [2], in [3], in experiment [4], in [5] and in [6] was more than 100 µM each time. Moreover, the TGI in experiment [7], in experiment [11], in [8] and in experiment [9] was more than 100 µM each time.
As to `Cc1cc(S(=O)(=O)N=C2N(Cc3ccccc3)CCN2Cc2ccccc2)c(S)cc1Cl`, the TGI in experiment [10], in experiment [1], in [2], in experiment [3], in experiment [4] and in experiment [5] was more than 100 µM throughout. Besides, the TGI in experiment [6] is more than 100 µM; in [7] it was more than 100 µM; in [11] it was 47.4 µM; in [9] it was more than 100 µM.
As to `CCN(CC)CCNc1nc2ccc([N+](=O)[O-])cc2[n+]([O-])n1`, the TGI in experiment [10] amounted to 54.3 µM; in experiment [1], 49.7 µM; in experiment [3], 85.3 µM; in [4] it was 29.5 µM; in experiment [5], 33.1 µM; in experiment [6] it was 31.7 µM. Besides, the TGI in [7] is 56.8 µM; in experiment [11], more than 100 µM; in experiment [8] it was 35.3 µM; in [9], 4.28 µM.
As to `CC1OC(OC2C(O[C@H]3CC[C@@]4(C)C(=CC[C@H]5[C@@H]6C[C@@H]7O[C@]8(CC[C@@H](CO)CO8)[C@@H](C)[C@@H]7[C@@]6(C)CC[C@@H]54)C3)OC(CO)C(O)C2OC2OC(CO)C(O)C(O)C2O)C(O)C(O)C1O` (stereo partly drawn), the TGI was found to be 3.17 µM in [10]; 3.82 µM in [1]; 3.21 µM in [2]; 3.48 µM in experiment [4]; 3.25 µM in experiment [5]; 4.08 µM in [6]. Moreover, the TGI worked out at 3.18 µM in [7], 5.46 µM in experiment [11], 3.7 µM in experiment [8] and 3.34 µM in experiment [9].
As to `C[C@]12CCC(=O)O[C@H]1CCCCO2`, the TGI in experiment [10], in experiment [1], in experiment [2], in experiment [3], in [4] and in experiment [5] was more than 100 µM throughout. The TGI in [6], in [7], in experiment [8] and in experiment [9] was more than 100 µM each time.
As for `O=C(O)Cc1cccc2c(=O)c3ccccc3oc12`, the TGI in experiment [10], in [1], in [2], in experiment [3], in [4] and in experiment [5] was more than 100 µM in each case. The TGI in experiment [7] was more than 100 µM; in experiment [11] it was more than 100 µM; in [8], 56.5 µM; in experiment [9] it was more than 100 µM.
In the case of `COC[C@@H](C[C@H]1O[C@@](O)([C@H](O)[C@@H]2C[C@H](OC)[C@@H](O)CC/C=C(C)/C=C/[C@@H](O[C@@H]3O[C@@H](C)[C@H](OC)[C@@H](O)[C@@H]3O)[C@H](C)/C=C(C)/C=C(C)/C=C(\C)C(=O)O2)[C@H](C)[C@@H](O)[C@H]1C)O[C@H]1C[C@](C)(O)[C@@H](O[C@H]2C[C@@H](OC)[C@H](O)[C@@H](C)O2)C(C)O1` (stereo partly drawn), the TGI in experiment [10] was more than 46.7 µM; in experiment [1], more than 100 µM; in experiment [2], more than 100 µM; in experiment [4], more than 100 µM; in [5], more than 100 µM; in [6] it was more than 100 µM. Moreover, the TGI in [7] was more than 100 µM; in [11] it was more than 100 µM; in [8] it was more than 100 µM; in experiment [9], more than 55.5 µM.
Consider `CC(=O)OCC12C(=O)C[C@@H](C)C3(CC(c4ccoc4)OC3=O)C1CCC(OC(C)=O)C21CO1` (stereo partly drawn), for which the TGI in experiment [10], in experiment [1], in experiment [2], in experiment [4], in experiment [5] and in [6] was more than 100 µM in each case. Besides, the TGI in experiment [7], in [11], in experiment [8] and in experiment [9] was more than 100 µM throughout.
Turning to `O=C1CC(=Nc2ccc(Cl)cc2)C(c2ccccc2)N1c1ccccc1` (stereo not drawn), the TGI in experiment [10] was more than 100 µM; in experiment [1] it was more than 100 µM; in experiment [2], more than 100 µM; in experiment [4], 6.32 µM; in experiment [5] it was 85.2 µM; in [7], more than 100 µM. Further, the TGI is more than 100 µM in [11], 7.92 µM in experiment [8] and 90.8 µM in experiment [9].
For `O=Cc1c(C(=O)O)[nH]c(=O)[nH]c1=O`, the TGI in experiment [10], in experiment [1], in experiment [3], in experiment [4], in [5] and in [6] was more than 100 µM each time. The TGI in [7], in [11], in experiment [8] and in [9] was more than 100 µM each time.
